Reference: PMC13330650 (Matrix biology : journal of the International Society for …, 2025)
Numbering of substitutions follows the chain as printed. Entries after “also recorded” stand apart in the source; their conditions may differ. Read-outs that look alike come from different tables or passages of the source.

Legend:
[1] = test system: UGDH pS316 in LNCaP cells; assay: western blot of UGDH pS316 (anti-p-Akt substrate) in LNCaP whole cell lysates; assay type: cell-based, human; details: for EGF-stimulated p-UGDH band intensity: EGF 20ng/mL, inhibitor 20 μM
From the text: To validate the phosphorylation of UGDH by RSK2, S6K1, and SGK1 in a cellular context, we used a western analysis that capitalized on the general reactivity of an antibody generated against the phosphorylated AGC kinase motif (RxRxxpS/T) for targets of Akt, which is also a member of this kinase family. To validate the assay, we first compared phosphorylation of S316 in the in vitro kinase assay using purified recombinant UGDH. […] We further validated using serum starved LNCaP cells treated with EGF to stimulate activity of RSK2 [26] and S6K1 [27], or DHT to activate SGK1 [28], prior to lysate harvest.
(§1) Cell treatments were conducted as follows, except where described. To stimulate phosphorylation of UGDH at S316 for Western blot analysis, cells were cultured in replete medium until they reached 70 % confluence. Seventy-two hours prior to harvest, medium was replaced with phenol-red-free media containing 5 % CS-FBS to reduce androgen signaling. Twenty-four hours prior to harvest, medium was replaced with phenol-red-free media containing 10 % CS-FBS plus 10 nM DHT or vehicle control. EGF (20ng/mL) or vehicle control were added to cell media twenty minutes prior to harvest. For assessment of UGDH pS316 in these conditions with kinase inhibition, assays were repeated with kinase inhibitors added alongside EGF, DHT, and controls. Kinase inhibitor treatment concentrations were optimized based on published efficacy ranges and the following were used for all assays: BIX02565 (20 μM), PF4708671 (20 μM), GSK650394 (40 μM). Proliferation assays were performed with 10 μM enzalutamide (enz) added as described below, and 3D assays were performed with 1 μM enz added during seeding as described. For click chemistry quantification of glycans in cells treated with 4-MU, 10 μM was added to cell medium during the addition of the click labeling reagents.
Media were aspirated from cells, and a portion kept for analysis of HA content. Cells were washed with 2 mL cold 1x PBS, scraped into 1 mL of cold 1xPBS, pelleted by centrifugation, and lysed with 1x RIPA buffer supplemented with 1x protease inhibitor cocktail. For analysis of phosphoprotein expression, 1x phosphatase inhibitor was added to the lysis buffer. Bradford assay was performed to quantify protein content of cell lysates. Blots were imaged and quantified through fluorescence emission using the Odyssey Infrared Imaging System (LI-COR Biosciences, Lincoln, NE, USA). β-tubulin or GAPDH were used to normalize protein expression. Each analysis was plotted for three technical replicates of a representative experiment that was repeated at least three times. Statistical significance was assessed by one-way ANOVA followed by Tukey’s post hoc test for multiple comparisons.

[2] = test system: O-glycans in LNCaP UGDH WT (OE) and S316D cells; assay: metabolic O-glycan labeling (Ac4GalNaz click chemistry) with 4-MU; assay type: cell-based, human; details: 10 μM 4-MU, 72 hours
[3] = test system: LNCaP cell lines (VC, UGDH WT (OE), UGDH S316D, UGDH S316A); assay: proliferation assay (resazurin conversion to resorufin); assay type: cell-based, human; details: for cell number / proliferation, single kinase inhibitor: all lines, 3-day, inhibitor 20 μM, replete media
Procedure: as §1
For basal growth, 5 × 10^4 cells of each line were cultured in 24-well plates in standard steroid-replete media. Cell proliferation was measured daily for three days in replicate plates incubated for 2 h with media containing 10 % resazurin, after which fluorescence of the reduced product, resorufin, was measured (560Ex/590Em) in a microplate reader. To assess the impacts of kinase inhibition on cell growth, assays were repeated in the presence of inhibitors individually and in combination. For androgen-mediated cell growth with kinase inhibition, cells were cultured in 24-well plates in standard steroid-replete media. After 12 h, media were first removed and replaced with media containing 5 % CS-FBS (androgen-depleted conditions) for 48 h, and then media were removed and replaced with media containing 10 % CS-FBS plus 10 nM DHT and kinase inhibitors for another 48 h. Cell proliferation was measured daily as described above beginning when cells were switched to androgen free conditions. For enz treatments, cells were cultured in 24-well plates in standard steroid-replete media. After 12 h, media were replaced with replete media containing vehicle or 10 μM enz and vehicle or kinase inhibitors. For assays with kinase inhibition, cell proliferation was measured daily as described above beginning when cells were switched to the respective treatment condition. Cell numbers were extrapolated from fluorescence values by comparison to a standard curve for each respective cell line, and cell count at the end of the experiment was normalized to cell count on day zero directly following media replacement. All data were plotted for four technical replicates of experiments that were repeated three times. Statistical significance was assessed by one-way ANOVA followed by Tukey’s post hoc test for multiple comparisons.

[4] = test system: LNCaP cell lines (VC, UGDH WT (OE), UGDH S316D, UGDH S316A); assay: tumoroid (anchorage independent spheroid) growth assay; assay type: cell-based, human
UGDH S316A = target: T1, UGDH S316A (Homo sapiens, UniProt O60701, S316A); assay: steady state kinetics of purified recombinant UGDH S316A; assay type: biochemical; details: cofactor NAD+ varied
T1 construct: six-histidine; made in house; host or cells: E. coli BL21(DE3)
T1 sequence (O60701 1-494 S316A): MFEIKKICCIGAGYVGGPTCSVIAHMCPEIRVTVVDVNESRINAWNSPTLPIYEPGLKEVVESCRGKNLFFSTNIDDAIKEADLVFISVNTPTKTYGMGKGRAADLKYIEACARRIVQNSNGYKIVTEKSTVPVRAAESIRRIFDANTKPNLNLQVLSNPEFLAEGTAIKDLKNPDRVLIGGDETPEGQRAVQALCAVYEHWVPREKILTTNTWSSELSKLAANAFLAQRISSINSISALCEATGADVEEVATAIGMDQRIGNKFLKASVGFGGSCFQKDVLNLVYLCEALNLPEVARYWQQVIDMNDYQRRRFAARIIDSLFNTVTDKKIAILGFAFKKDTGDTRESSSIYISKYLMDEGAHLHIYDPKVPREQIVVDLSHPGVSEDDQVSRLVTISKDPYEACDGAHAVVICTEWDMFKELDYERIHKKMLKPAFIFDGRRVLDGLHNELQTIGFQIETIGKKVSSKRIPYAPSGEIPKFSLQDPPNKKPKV
Procedure: (§2) Purified S316 mutants were compared to the UGDH WT enzyme using the following approaches as previously described. Enzymatic activity was evaluated by steady state kinetics in the presence and absence of the endogenous inhibitor UDP-Xylose to compare Michaelis constants and IC50 values. Intrinsic stability was assessed by thermal denaturation and quaternary structure was determined by size exclusion chromatography. Binding of UDP-Xylose to recombinant UGDH and mutants was measured by isothermal titration calorimetry using the MicroCal PEAQ-ITC (Malvern Panalytical). […] Binding heats were corrected for the heat of dilution and analyzed using the MicroCal PEAQ-ITC Analysis Software, employing a single-site binding model to determine Kd values.

UGDH S316D = target: T2, UGDH S316D (Homo sapiens, UniProt O60701, S316D); assay: steady state kinetics of purified recombinant UGDH S316D; assay type: biochemical; details: cofactor NAD+ varied
T2 construct: six-histidine; made in house; host or cells: E. coli BL21(DE3)
T2 sequence (O60701 1-494 S316D): T1 sequence (O60701 1-494 S316A) with A316D
Procedure: as §2

UGDH WT = target: T3, UGDH WT (Homo sapiens, UniProt O60701); assay: steady state kinetics of purified recombinant UGDH WT; assay type: biochemical; details: cofactor NAD+ varied
T3 construct: six-histidine; made in house; host or cells: E. coli BL21(DE3)
T3 sequence (O60701 1-494): T1 sequence (O60701 1-494 S316A) with A316S
Procedure: as §2

EGF: growth factor used to stimulate activity of RSK2 and S6K1
stimulation of UGDH phosphorylation in whole cell lysates ([1]; serum starved LNCaP cells, EGF 20ng/mL or 10 nM DHT): Strong stimulation

Cc1cc(=O)oc2cc(O)ccc12 [4-MU, 4-methylumbelliferone]
O-glycan levels with 4-MU ([2]; UGDH S316D cell lines): this reversal was not observed
O-glycan levels with 4-MU ([2]; UGDH WT (OE) cells): significant reductions in O-linked glycans; also recorded: reversed the enhancement of O-glycan levels

C[C@@H]1CCNC(=O)c2cc3ccc(C(=O)Nc4nc5ccccc5n4CCCN(C)C)cc3n21 [BIX02565]
EGF-stimulated p-UGDH band intensity ([1]; LNCaP cells): significantly reduced
cell death ([3]; VC and UGDH S316A cells, BIX02565 20 μM): induced significant cell death
cell number / proliferation, single kinase inhibitor [3]: reduced cell number in all lines
spheroid growth diminished ([4]; UGDH WT (OE) and S316D expressing cells, RSK2 inhibitor BIX02565 20 μM): ≈ 80%
medium and large spheroid growth ([4]; VC and UGDH S316A cell lines, RSK2 inhibitor BIX02565 20 μM): almost completely suppressed

O=C(O)c1ccc(-c2c[nH]c3ncc(-c4ccccc4)cc23)cc1C1CCCC1 [GSK650394]
DHT-stimulated p-UGDH band ([1]; LNCaP cells, 10 nM DHT, GSK650394 40 μM): virtually eliminated
cell proliferation after serum and steroid depletion ([3]; GSK650394 40 μM, depleted 48 h, then serum and 10 nM DHT): significant impacts were observed
cell proliferation in replete medium ([3]; GSK650394 40 μM, replete medium, not shown): did not abrogate cell proliferation

NC(=O)c1ccc[n+]([C@@H]2O[C@H](COP(=O)([O-])OP(=O)(O)OC[C@H]3O[C@@H](n4cnc5c(N)ncnc54)[C@H](O)[C@@H]3O)[C@@H](O)[C@H]2O)c1 [NAD+]
Km (UGDH S316A): 380 ± 60 µM
NAD+ Vmax (UGDH S316A): 490±20 nmol/min/mg of protein
NAD+ Vmax (UGDH S316A; listed as NAD^+): 490 nmol/min/mg of protein
Km (UGDH S316D): 330 ± 70 µM
NAD+ Vmax (UGDH S316D): 230±20 nmol/min/mg of protein
NAD+ Vmax (UGDH S316D; listed as NAD^+): 230 nmol/min/mg of protein
Km (UGDH WT): 530 ± 90 µM
NAD+ Vmax (UGDH WT): 710±40 nmol/min/mg of protein
NAD+ Vmax (UGDH WT; listed as NAD^+): 710 nmol/min/mg of protein

C[C@]12CCC(=O)C[C@@H]1CC[C@@H]1[C@@H]2CC[C@]2(C)[C@@H](O)CC[C@@H]12 [DHT, 5α-Androstan-17β-ol-3-one]
stimulation of UGDH phosphorylation in whole cell lysates [1]: Strong stimulation

CNC(=O)c1ccc(N2C(=S)N(c3ccc(C#N)c(C(F)(F)F)c3)C(=O)C2(C)C)cc1F [enz, enzalutamide]
growth in the presence of enz and S6K1 inhibitor ([3]; UGDH S316D lines, 10 μM enz + PF4708671 20 μM): < 30 % of initial cell count
proliferation in the presence of enz alone ([3]; UGDH WT and S316D cells, 10 μM enz): minimal detectable effect on proliferation; also recorded: continued to proliferate
growth reduction, combined targeting of RSK2 with enz ([3]; UGDH WT and S316D, 10 μM enz + BIX02565 20 μM): ≈ 20%
growth, combined targeting of RSK2 with enz ([3]; VC and UGDH S316A lines, 10 μM enz + BIX02565 20 μM): eliminated growth
growth suppression by enz alone ([3]; VC and UGDH S316A-expressing cells, 10 μM enz): ≈ 40%
enz suppression of large spheroid growth ([4]; UGDH WT (OE) and S316D expressing cells, 1 μM enz): sensitive

CCc1cncnc1N1CCN(Cc2nc3ccc(C(F)(F)F)cc3[nH]2)CC1 [PF4708671]
EGF-stimulated p-UGDH band intensity ([1]; LNCaP cells): significantly reduced
cell number / proliferation, single kinase inhibitor [3]: reduced proliferation in all lines
